Laboratory results as given in patent US20130273138A1, “TRANSDERMAL FORMULATIONS OF GERANYLGERANYLACETONE” (COYOTE PHARMACEUTICALS, INC., priority 2012, published 2013).

Test: Dissolution of GGA patch (HPLC refractive index detector)
Assay type: physicochemical
Details: 3.2 cm×3 cm patch, 10 mg GGA; 24 hour time point; acetonitrile as the media
Protocol: The assembly was then clipped to two pins to sink the membrane-patch assembly to the bottom of the vessel and remains at the fixed position.
Two chromatograms (one standard of 0.05 mg/mL and one sample taken at 24 hour time point) in FIGS. 1A and 1B illustrate the dissolution results. Nearly all GGA in the membrane was released according to this specific dissolution setting (i.e., acetonitrile as the media).

Structure (SMILES): CC(=O)CC/C=C(\C)CC/C=C(\C)CC/C=C(\C)CCC=C(C)C [GGA, Geranylgeranylacetone]
- GGA released from patch (dissolution): Nearly all
